Here are results for four compounds from BindingDB's records for doi:10.1016/s0960-894x(02)00796-5 (Janssen-Cilag, 2002).

Experiment [1] in a line: Binding affinity against […] adrenergic receptor.
Assay in experiment [2]: as above
The source holds these as a separate data set.

`CN(C)CC1CC2c3ccccc3Cc3ccc(Cl)cc3N2O1` (centres undefined): the half-inhibitory concentration (IC50) (as a rule, the concentration at which inhibition is half-maximal) in experiment [1] turned out to be 871 nM.
In the case of `CN(C)CC1CC2c3ccccc3Cc3ccncc3N2O1` (centres undefined), the IC50 in experiment [2] was below 1000 nM.
On the same count and under the same terms, to `CN(C)CC1CC2c3cccnc3Cc3ccccc3N2O1` (centres undefined) belongs below 1000 nM.
For the compound `CN(C)C[C@@H]1C[C@@H]2c3ccccc3Cc3ccccc3N2O1` [Dimethyl-[(2S,3aR)-1-(2,3,3a,8-tetrahydro-1-oxa-12b-aza-dibenzo[e,h]azulen-2-yl)methyl]-amine], in experiment [1], the IC50 worked out at 1860 nM.
